From US11904051B2, “Shear stress sensitive liposomes” (Universität Basel, priority 2018, dated 2024)

Experiments:
Assay type in all cases: physicochemical
[1] = Cryo-TEM of liposomal suspensions of the SANS study
Procedure: The liposomal suspensions were diluted at a ratio of 1:2 with D2O, to a final concentration of 5 mg/mL. Next, 4 μL aliquots of each suspension were adsorbed onto a holey carbon-coated grid (Lacey, Tedpella, USA), blotted with Whatman 1 filter paper and vitrified into liquid ethane at a temperature of −178° C., using a Leica GP plunger (Leica, Austria). Frozen grids were transferred onto a Talos electron microscope (Thermo Fisher, USA), using a Gatan 626 cryo-holder. Electron micrographs were recorded at an accelerating voltage of 200 kV and a nominal magnification of 45,000×, using a low-dose system (20 e^−/Å^2) and keeping the sample at liquid nitrogen temperature. Micrographs were recorded on the CETA camera. Pixel size at the sample level was (3.26 Å)^2.

[2] = Dynamic light scattering of liposome formulations before and after SANS heating cycles; details: for PDI, After heating / Size (hydrodynamic), After heating: after the SANS experiments (n = 3); for Size (hydrodynamic), After heating: heating to 42° C. and back, eight months after; for Size (hydrodynamic), Before heating / PDI, Before heating: before the SANS experiments (n = 5); for Size (hydrodynamic), Before heating: room temperature, D2O
Procedure: A library of artificial phospholipids was synthesised. Table 5 summarises the characterisation of the liposomal formulations concerning hydrodynamic size and polydispersity, before and after the temperature-dependent SANS measurements. The size of the DPPC and Pad-PC-Pad liposomes was (120±2) nm with a polydispersity index between 0.01 and 0.20. […] Pad-Pad-PC and Sur-PC-Sur liposomes were 400 to 1,500 nm in size with a polydispersity index of 0.57.
DLS measurements were carried out on a DelsaMax PRO (Beckman Coulter, USA) at room temperature and at a lipid concentration of 0.3 mg/mL in D2O. The data were averaged among five independent measurements before heating cycles and three measurements eight months after applying heating cycles. Data were treated with the cumulant analysis method.

[3] = Cryo-TEM of large unilamellar vesicles made of Rad-PC-Rad; details: 509 membrane cuts in cryo-TEM image
Procedure: The inventors measured the cryo-TEM images according to a previously described protocol (Ishikawa et al, J. Mol. Biol. 2007, 368 (5), 1249-1258). The cryo-TEM images recorded from large unilamellar vesicles (LUV) entirely made of Rad-PC-Rad, show a significant number of strongly facetted shapes below the membranes' main phase transition temperature of the membranes (Tm≈45° C.) (FIGS. 6 and 7). The ratio between facetted and spherical vesicles calculated from FIG. 6 is 21:4.
The interdigitation of the leaflets in a membrane can be directly measured from lateral cuts through the membrane in the cryo-TEM image (FIG. 6). To collect statistically relevant data, the inventors measured 509 membrane cuts (FIG. 6) with a mean membrane thickness of 3.20 nm±0.02 nm (N=509). With two times 0.7 nm for the headgroups, the hydrophobic layer is 1.8 nm thick. An all-trans alkyl chain of 16 C-atoms has a length of 2.05 nm. Thus, the alkyl chains would have a tilt angle of 64°, which is physically absurd. Therefore, a full bilayer interdigitation can be assumed.

[4] = Surface pressure/area per molecule isotherms of monolayers on Langmuir-Pockels trough
Procedure: The surface pressure/area per molecule isotherm measurements were carried out on a Langmuir-Pockels trough, equipped with a Wilhelmy paper balance (accuracy 0.2 mN/m), at the air-water interface. The isotherms were measured at different subphase temperatures between 5° C. and 25° C. (FIG. 2).
Above 10 C, a plateau of a mixed expanded/condensed phase transition was observed. The appearance of the plateau is accompanied by a shift of the initial lift-off area per molecule to higher values. The plateau represents the first-order phase transition from a liquid-expanded (LE) to a liquid-condensed (LC) phase. The plateau is not fully horizontal, especially it becomes steeper as the temperature increases. The monolayers themselves are stable over the measurable range of surface pressures up to an instrument-based cut-off at 51 mN/m. From the onset of the plateau it is possible to determine the temperature-dependent main transition pressure Πt. For 1,3-diheptadecanamidopropan-2-yl (2-(trimethylammonio) ethyl) phosphate this dependence can be described by a linear function (FIG. 3). The experimental data only deviates from this linear function in close vicinity of the minimum transition temperature T0 below which the transition into a condensed phase directly starts from the gas-analog state (re-sublimation process). […]

Row | SMILES | diameter of flattened liposomes and/or bicelles (cryo-TEM) ([1]; heated above Tm) | average size of liposomes estimated from cryo-TEM images ([1]; not heated above transition temperature) | PDI, After heating [2] | Size (hydrodynamic), After heating [2] | Size (hydrodynamic), Before heating [2] | Size (hydrodynamic), Before heating ([2]; listed as Pad-PC-Pad (4)) | PDI, Before heating ([2]; listed as Pad-PC-Pad (4)) | mean size of liposomes derived from cryo-TEM images ([1]; after SANS heat treatment and eight months' storage) | multi-lamellar liposomes ([1]; determined by cryo-TEM) | Size (hydrodynamic), Before heating ([2]; listed as DPPC (1)) | PDI, Before heating ([2]; listed as DPPC (1)) | mean membrane thickness [3] | DLS most probable / dominant or smaller population size [2] | PDI, Before heating [2] | Size (hydrodynamic), Before heating ([2]; listed as Rad-PC-Rad (5)) | minimum transition temperature T0 of monolayer ([4]; air-water interface) | critical temperature of monolayers ([4]; extrapolation of ΔS to zero)
1 | CCCCCCCCCCCCCCCC(=O)NCC(CNC(=O)CCCCCCCCCCCCCCC)OP(=O)([O-])OCC[N+](C)(C)C [Pad-PC-Pad, 1,3-palmitoylamido-1,3-deoxy-sn-glycero-2-phosphatidylcholine] | about 50 nm | 92±14 nm | 0.33 ± 0.04 | 53 ± 4 nm | 120±2 nm | 126 ± 4 nm | 0.19 ± 0.04 |  |  |  |  |  |  |  |  |  | 
2 | CCCCCCCCCCCCCCCC(=O)OC[C@H](COP(=O)([O-])OCC[N+](C)(C)C)OC(=O)CCCCCCCCCCCCCCC [DPPC, 1,2-dipalmitoyl-sn-glycero-3-phosphocholine] |  |  | 0.33 ± 0.02 | 600 ± 40 nm | 120±2 nm |  |  | 87±20 nm | About 16% | 120 ± 2 nm | 0.01 ± 0.01 |  |  |  |  |  | 
3 | CCCCCCCCCCCCCCCCC(=O)NCC(CNC(=O)CCCCCCCCCCCCCCCC)OP(=O)([O-])OCC[N+](C)(C)C [Rad-PC-Rad, 1,3-diheptadecanamidopropan-2-yl (2-(trimethylammonio)ethyl) phosphate] |  |  | 0.32 ± 0.03 | 700 ± 100 nm |  |  |  |  |  |  |  | 3.20 nm | about 150 nm | 0.57 ± 0.01 | 150 ± 3 nm | 11.2 °C | 306.3 K
